Laboratory results published in patent US20240400577A1, “MODULATORS OF PROTEIN KINASES” (VIBLIOME THERAPEUTICS, LLC, priority 2021, published 2024).

Experiments:
Assay in all cases: Kinase panel enzymatic inhibition assay (Nanosyn)
Type in all cases: biochemical
ITK = target: T1, ITK (Homo sapiens, UniProt Q08881); details: ATP at Km; 30-minute pre-incubation; read-out: kinase inhibition in terms of IC50, ITK
T1 construct: Nanosyn (contract laboratory that ran the panel)
T1 sequence (Q08881 1-620): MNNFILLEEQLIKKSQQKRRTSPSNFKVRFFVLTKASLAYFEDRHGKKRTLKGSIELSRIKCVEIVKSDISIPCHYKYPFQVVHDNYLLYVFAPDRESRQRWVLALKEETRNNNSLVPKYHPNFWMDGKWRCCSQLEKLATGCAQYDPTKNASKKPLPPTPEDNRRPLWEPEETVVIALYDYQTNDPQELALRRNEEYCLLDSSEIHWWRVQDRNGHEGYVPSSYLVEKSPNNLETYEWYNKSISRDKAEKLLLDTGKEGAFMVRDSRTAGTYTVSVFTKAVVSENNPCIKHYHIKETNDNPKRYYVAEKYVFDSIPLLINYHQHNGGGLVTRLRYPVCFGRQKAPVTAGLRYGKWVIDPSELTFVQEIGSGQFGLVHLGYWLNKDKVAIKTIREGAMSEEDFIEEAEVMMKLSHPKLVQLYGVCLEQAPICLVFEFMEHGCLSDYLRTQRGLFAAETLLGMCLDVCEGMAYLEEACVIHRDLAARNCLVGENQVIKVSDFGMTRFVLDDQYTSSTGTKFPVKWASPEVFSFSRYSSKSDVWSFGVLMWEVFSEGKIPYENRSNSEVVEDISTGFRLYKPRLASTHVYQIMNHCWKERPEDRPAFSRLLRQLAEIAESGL
Procedure, shortened: (§1)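 Inhibition is expressed as percent at 5 μM or as IC50, with ATP set at the Km of each kinase and a 30-minute compound pre-incubation. Detection used an accepted enzymatic format such as Caliper mobility shift.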

RIPK1 = target: T2, RIPK1 (Homo sapiens, UniProt Q13546); details: ATP at Km; 30-minute pre-incubation; read-out: kinase inhibition in terms of IC50, RIPK1
T2 construct: purchased Nanosyn
T2 sequence (Q13546 1-671): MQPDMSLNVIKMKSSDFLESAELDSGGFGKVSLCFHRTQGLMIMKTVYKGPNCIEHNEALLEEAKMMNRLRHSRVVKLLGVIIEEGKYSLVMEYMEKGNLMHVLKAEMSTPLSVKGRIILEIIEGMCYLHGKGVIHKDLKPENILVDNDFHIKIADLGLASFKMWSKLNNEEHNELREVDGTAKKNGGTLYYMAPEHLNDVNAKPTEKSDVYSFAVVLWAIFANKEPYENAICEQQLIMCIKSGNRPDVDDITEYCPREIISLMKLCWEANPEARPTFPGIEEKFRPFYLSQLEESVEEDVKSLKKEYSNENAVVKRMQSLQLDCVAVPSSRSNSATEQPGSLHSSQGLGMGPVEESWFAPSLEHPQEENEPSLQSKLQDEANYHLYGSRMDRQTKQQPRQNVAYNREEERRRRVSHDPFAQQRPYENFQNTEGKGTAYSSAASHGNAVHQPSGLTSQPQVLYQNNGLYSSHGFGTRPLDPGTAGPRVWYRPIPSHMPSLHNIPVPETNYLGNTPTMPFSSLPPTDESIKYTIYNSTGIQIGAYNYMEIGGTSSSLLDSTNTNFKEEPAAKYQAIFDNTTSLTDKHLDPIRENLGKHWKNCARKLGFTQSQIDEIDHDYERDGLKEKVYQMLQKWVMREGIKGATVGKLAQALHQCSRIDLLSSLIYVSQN
Procedure, shortened: as §1

RIPK2 = target: T3, RIPK2 (Homo sapiens, UniProt O43353); details: ATP at Km; 30-minute pre-incubation; read-out: kinase inhibition in terms of IC50, RIPK2
T3 construct: purchased Nanosyn
T3 sequence (O43353 whole entry): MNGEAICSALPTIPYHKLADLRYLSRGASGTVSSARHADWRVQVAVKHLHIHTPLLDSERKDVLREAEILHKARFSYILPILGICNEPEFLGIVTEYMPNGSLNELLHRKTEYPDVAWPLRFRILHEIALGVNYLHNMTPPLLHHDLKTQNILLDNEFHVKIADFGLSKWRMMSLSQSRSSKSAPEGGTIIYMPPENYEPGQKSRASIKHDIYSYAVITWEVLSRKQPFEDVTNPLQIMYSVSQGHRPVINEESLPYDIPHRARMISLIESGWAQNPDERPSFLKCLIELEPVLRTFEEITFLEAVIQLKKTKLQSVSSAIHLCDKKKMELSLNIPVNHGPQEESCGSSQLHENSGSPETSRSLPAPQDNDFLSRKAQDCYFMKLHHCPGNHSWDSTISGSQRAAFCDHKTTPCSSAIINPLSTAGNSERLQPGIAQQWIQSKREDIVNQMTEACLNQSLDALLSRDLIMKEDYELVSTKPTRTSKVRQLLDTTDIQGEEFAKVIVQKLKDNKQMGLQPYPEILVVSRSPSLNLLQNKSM
Procedure, shortened: as §1

RIPK3 = target: T4, RIPK3 (Homo sapiens, UniProt Q9Y572); details: ATP at Km; 30-minute pre-incubation; read-out: kinase inhibition in terms of IC50, RIPK3
T4 construct: purchased Nanosyn
T4 sequence (Q9Y572 whole entry): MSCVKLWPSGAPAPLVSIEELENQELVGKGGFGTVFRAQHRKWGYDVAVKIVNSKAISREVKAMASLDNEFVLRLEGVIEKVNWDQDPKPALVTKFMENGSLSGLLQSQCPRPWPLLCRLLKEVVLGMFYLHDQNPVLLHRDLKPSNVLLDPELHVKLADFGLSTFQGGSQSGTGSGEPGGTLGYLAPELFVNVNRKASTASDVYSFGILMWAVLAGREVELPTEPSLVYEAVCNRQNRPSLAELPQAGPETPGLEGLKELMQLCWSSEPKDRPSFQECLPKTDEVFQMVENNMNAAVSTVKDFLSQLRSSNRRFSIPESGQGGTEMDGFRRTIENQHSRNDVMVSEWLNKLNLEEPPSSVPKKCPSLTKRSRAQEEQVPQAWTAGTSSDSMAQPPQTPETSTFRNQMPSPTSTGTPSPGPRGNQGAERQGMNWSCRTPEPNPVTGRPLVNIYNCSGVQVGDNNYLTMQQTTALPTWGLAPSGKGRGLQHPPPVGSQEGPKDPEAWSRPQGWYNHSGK
Procedure, shortened: as §1

TYRO3 = target: T5, TYRO3 (Homo sapiens, UniProt Q06418); details: ATP at Km; 30-minute pre-incubation; read-out: kinase inhibition in terms of IC50, TYRO3
T5 construct: purchased Nanosyn
T5 sequence (Q06418 41-890): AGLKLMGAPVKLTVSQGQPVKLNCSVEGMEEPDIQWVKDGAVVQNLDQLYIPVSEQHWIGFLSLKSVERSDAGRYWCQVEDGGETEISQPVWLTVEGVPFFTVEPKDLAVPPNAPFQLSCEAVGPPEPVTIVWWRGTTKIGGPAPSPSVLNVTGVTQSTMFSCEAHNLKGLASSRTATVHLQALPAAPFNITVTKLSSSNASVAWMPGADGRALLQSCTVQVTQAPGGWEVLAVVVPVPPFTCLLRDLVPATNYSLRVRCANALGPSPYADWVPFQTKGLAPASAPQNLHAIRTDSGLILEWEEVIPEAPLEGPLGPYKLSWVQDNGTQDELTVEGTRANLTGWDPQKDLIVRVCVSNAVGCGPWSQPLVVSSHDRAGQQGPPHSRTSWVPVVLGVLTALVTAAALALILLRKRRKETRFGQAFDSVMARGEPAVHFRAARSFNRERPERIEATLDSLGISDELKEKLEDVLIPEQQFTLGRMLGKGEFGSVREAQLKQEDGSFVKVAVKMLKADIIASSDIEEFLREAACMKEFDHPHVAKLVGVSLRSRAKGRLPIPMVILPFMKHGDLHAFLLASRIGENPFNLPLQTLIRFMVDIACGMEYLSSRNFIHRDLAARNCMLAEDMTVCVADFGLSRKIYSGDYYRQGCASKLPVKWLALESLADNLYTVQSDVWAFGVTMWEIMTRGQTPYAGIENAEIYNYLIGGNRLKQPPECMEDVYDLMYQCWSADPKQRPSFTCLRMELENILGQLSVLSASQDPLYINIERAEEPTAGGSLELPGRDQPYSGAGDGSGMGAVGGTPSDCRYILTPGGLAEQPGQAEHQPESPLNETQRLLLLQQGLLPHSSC
Procedure, shortened: as §1

| IC50 (ITK) [nM] | IC50 (RIPK1) [nM] | IC50 (RIPK2) [nM] | IC50 (RIPK3) [nM] | IC50 (TYRO3) [nM] | SMILES |
| --- | --- | --- | --- | --- | --- |
| ≥ 10000 | ≥ 10000 | 500 to 1000 | 1000 to 10000 | < 500 | COc1cc2nccc(Oc3ccc(NC(=O)c4cc(S(C)(=O)=O)n(-c5ccc(F)cc5)n4)c(F)c3)c2cc1OC [Ex71, N-(4-((6,7-dimethoxyquinolin-4-yl)oxy)-2-fluorophenyl)-1-(4-fluorophenyl)-5-(methylsulfonyl)-1H-pyrazole-3-carboxamide] |
| 1000 to 10000 |  |  |  | 1000 to 10000 | COc1cc2nccc(Oc3ccc(NC(=O)c4cc(S(C)(=O)=O)n(-c5ccc(F)cc5)n4)cc3F)c2cc1OC [Ex73, N-(4-((6,7-dimethoxyquinolin-4-yl)oxy)-3-fluorophenyl)-1-(4-fluorophenyl)-5-(methylsulfonyl)-1H-pyrazole-3-carboxamide] |
